{"source": "patent US6667387B1", "about": "“HCV core peptides” (priority 1992, dated 2003)", "key": {"[1]": {"experiment": "ELISA with seronegative / negative control sera (specificity)", "format": "binding, human", "summary_of_the_method": "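Specificity readout is OD at 450 nm (HRP goat anti-human Ig, TMB/H2O2, sulfuric acid stop), with ≥0.250 counted positive. Seronegative donor sera (typically 1:100, 1 h, 37° C) were applied to casein-blocked wells coated with peptide directly or via streptavidin capture of biotinylated peptide.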"}, "[2]": {"tested_on": "antibodies in sera from HCV-seropositive donors", "experiment": "ELISA with HCV antibody-positive sera (biotinylated peptides on streptavidin- or avidin-coated plates, unbiotinylated peptides coated directly)", "format": "binding, human", "details": "for PEPTIDE ELISA (O.D.): Table 12, biotinylated 20-mers", "summary_of_the_method": "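Read-out is OD at 450 nm after HRP goat anti-human Ig and TMB development, following 1 h at 37° C. with seropositive or negative sera diluted 1:100 (or 20-fold). Antigen was either unbiotinylated peptide adsorbed on plastic (pH 9.6 carbonate, 2–5 or 3 μg/ml) or biotinylated peptide at 1 μg/ml captured on streptavidin-coated wells, with casein blocking.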"}}, "note": "Ends that are not written are not given here."}
{"sequence": "IIPDREVLYREFDEMEECSQ", "values": [{"measurement": "optical density (450 nm)", "setting": "[1]; Table 4F, negative serum", "result": 0.005}, {"measurement": "optical density (450 nm)", "setting": "[1]; Table 5, sample 1747 (negative), peptide concentration 0.01 micrograms per milliliter, listed as HCV peptide IX", "result": 0.043}, {"measurement": "optical density (450 nm)", "setting": "[1]; Table 5, sample 1747 (negative), peptide concentration 0.03 micrograms per milliliter, listed as HCV peptide IX", "result": 0.044}, {"measurement": "optical density (450 nm)", "setting": "[1]; Table 5, sample 1747 (negative), peptide concentration 0.1 micrograms per milliliter, listed as HCV peptide IX", "result": 0.042}, {"measurement": "optical density (450 nm)", "setting": "[1]; Table 5, sample 1747 (negative), peptide concentration 0.3 micrograms per milliliter, listed as HCV peptide IX", "result": 0.046}, {"measurement": "optical density (450 nm)", "setting": "[1]; Table 5, sample 1747 (negative), peptide concentration 1.0 micrograms per milliliter, listed as HCV peptide IX", "result": 0.049}, {"measurement": "optical density (450 nm)", "setting": "[1]; Table 5, sample 1747 (negative), peptide concentration 3.0 micrograms per milliliter, listed as HCV peptide IX", "result": 0.051}, {"measurement": "optical density (450 nm)", "setting": "[1]; Table 5, sample 1781 (negative), peptide concentration 0.01 micrograms per milliliter, listed as HCV peptide IX", "result": 0.049}, {"measurement": "optical density (450 nm)", "setting": "[1]; Table 5, sample 1781 (negative), peptide concentration 0.03 micrograms per milliliter, listed as HCV peptide IX", "result": 0.048}, {"measurement": "optical density (450 nm)", "setting": "[1]; Table 5, sample 1781 (negative), peptide concentration 0.1 micrograms per milliliter, listed as HCV peptide IX", "result": 0.047}, {"measurement": "optical density (450 nm)", "setting": "[1]; Table 5, sample 1781 (negative), peptide concentration 0.3 micrograms per milliliter", "result": 0.051}, {"measurement": "optical density (450 nm)", "setting": "[1]; Table 5, sample 1781 (negative), peptide concentration 1.0 micrograms per milliliter, listed as HCV peptide IX", "result": 0.051}, {"measurement": "optical density (450 nm)", "setting": "[1]; Table 5, sample 1781 (negative), peptide concentration 3.0 micrograms per milliliter", "result": 0.053}, {"measurement": "optical density (450 nm)", "setting": "[1]; Table 8, serum 1782 (blood donor), Avidin", "result": 0.062}, {"measurement": "optical density (450 nm)", "setting": "[1]; Table 8, serum 1784 (blood donor), Avidin", "result": 0.050}, {"measurement": "optical density (450 nm)", "setting": "[1]; Table 8, serum 1785 (blood donor), Avidin", "result": 0.050}, {"measurement": "optical density (450 nm)", "setting": "[1]; Table 8, serum 1794 (blood donor), Avidin", "result": 0.098}, {"measurement": "optical density (450 nm)", "setting": "[2]; Table 4F, serum 8315, 20-fold dilution", "result": 2.672}, {"measurement": "optical density (450 nm)", "setting": "[2]; Table 4F, serum 8316, 20-fold dilution", "result": 0.367}, {"measurement": "optical density (450 nm)", "setting": "[2]; Table 4F, serum 8317, 20-fold dilution", "result": 1.634}, {"measurement": "optical density (450 nm)", "setting": "[2]; Table 4F, serum 8318, 20-fold dilution", "result": 2.431}, {"measurement": "optical density (450 nm)", "setting": "[2]; Table 4F, serum 8320, 20-fold dilution", "result": 0.896}, {"measurement": "optical density (450 nm)", "setting": "[2]; Table 4F, serum 8321, 20-fold dilution", "result": 0.457}, {"measurement": "optical density (450 nm)", "setting": "[2]; Table 4F, serum 8326, 20-fold dilution", "result": 2.540}, {"measurement": "optical density (450 nm)", "setting": "[2]; Table 5, sample 8242 (positive), peptide concentration 0.01 micrograms per milliliter, listed as HCV peptide IX", "result": 0.215}, {"measurement": "optical density (450 nm)", "setting": "[2]; Table 5, sample 8242 (positive), peptide concentration 0.03 micrograms per milliliter, listed as HCV peptide IX", "result": 0.496}, {"measurement": "optical density (450 nm)", "setting": "[2]; Table 5, sample 8242 (positive), peptide concentration 0.1 micrograms per milliliter, listed as HCV peptide IX", "result": 0.911}, {"measurement": "optical density (450 nm)", "setting": "[2]; Table 5, sample 8242 (positive), peptide concentration 0.3 micrograms per milliliter, listed as HCV peptide IX", "result": 0.795}, {"measurement": "optical density (450 nm)", "setting": "[2]; Table 5, sample 8242 (positive), peptide concentration 1.0 micrograms per milliliter, listed as HCV peptide IX", "result": 0.777}, {"measurement": "optical density (450 nm)", "setting": "[2]; Table 5, sample 8242 (positive), peptide concentration 3.0 micrograms per milliliter, listed as HCV peptide IX", "result": 0.791}, {"measurement": "optical density (450 nm)", "setting": "[2]; Table 5, sample 8243 (positive), peptide concentration 0.01 micrograms per milliliter, listed as HCV peptide IX", "result": 0.639}, {"measurement": "optical density (450 nm)", "setting": "[2]; Table 5, sample 8243 (positive), peptide concentration 0.03 micrograms per milliliter, listed as HCV peptide IX", "result": 1.421}, {"measurement": "optical density (450 nm)", "setting": "[2]; Table 5, sample 8243 (positive), peptide concentration 0.1 micrograms per milliliter, listed as HCV peptide IX", "result": 1.834}, {"measurement": "optical density (450 nm)", "setting": "[2]; Table 5, sample 8243 (positive), peptide concentration 0.3 micrograms per milliliter, listed as HCV peptide IX", "result": 1.892}, {"measurement": "optical density (450 nm)", "setting": "[2]; Table 5, sample 8243 (positive), peptide concentration 1.0 micrograms per milliliter, listed as HCV peptide IX", "result": 1.953}, {"measurement": "optical density (450 nm)", "setting": "[2]; Table 5, sample 8243 (positive), peptide concentration 3.0 micrograms per milliliter, listed as HCV peptide IX", "result": 1.959}, {"measurement": "optical density (450 nm)", "setting": "[2]; Table 5, sample 8320 (positive), peptide concentration 0.01 micrograms per milliliter, listed as HCV peptide IX", "result": 0.461}, {"measurement": "optical density (450 nm)", "setting": "[2]; Table 5, sample 8320 (positive), peptide concentration 0.03 micrograms per milliliter, listed as HCV peptide IX", "result": 1.007}, {"measurement": "optical density (450 nm)", "setting": "[2]; Table 5, sample 8320 (positive), peptide concentration 0.1 micrograms per milliliter, listed as HCV peptide IX", "result": 1.244}, {"measurement": "optical density (450 nm)", "setting": "[2]; Table 5, sample 8320 (positive), peptide concentration 0.3 micrograms per milliliter, listed as HCV peptide IX", "result": 1.798}, {"measurement": "optical density (450 nm)", "setting": "[2]; Table 5, sample 8320 (positive), peptide concentration 1.0 micrograms per milliliter, listed as HCV peptide IX", "result": 0.802}, {"measurement": "optical density (450 nm)", "setting": "[2]; Table 5, sample 8320 (positive), peptide concentration 3.0 micrograms per milliliter, listed as HCV peptide IX", "result": 1.779}, {"measurement": "optical density (450 nm)", "setting": "[2]; Table 5, sample 8326 (positive), peptide concentration 0.01 micrograms per milliliter, listed as HCV peptide IX", "result": 1.812}, {"measurement": "optical density (450 nm)", "setting": "[2]; Table 5, sample 8326 (positive), peptide concentration 0.03 micrograms per milliliter, listed as HCV peptide IX", "result": 2.193}, {"measurement": "optical density (450 nm)", "setting": "[2]; Table 5, sample 8326 (positive), peptide concentration 0.1 micrograms per milliliter, listed as HCV peptide IX", "result": 2.284}, {"measurement": "optical density (450 nm)", "setting": "[2]; Table 5, sample 8326 (positive), peptide concentration 0.3 micrograms per milliliter, listed as HCV peptide IX", "result": 2.271}, {"measurement": "optical density (450 nm)", "setting": "[2]; Table 5, sample 8326 (positive), peptide concentration 1.0 micrograms per milliliter, listed as HCV peptide IX", "result": 2.271}, {"measurement": "optical density (450 nm)", "setting": "[2]; Table 5, sample 8326 (positive), peptide concentration 3.0 micrograms per milliliter, listed as HCV peptide IX", "result": 2.284}, {"measurement": "optical density (450 nm)", "setting": "[2]; Table 8, serum 8243 (HCV), Avidin", "result": 1.213}, {"measurement": "optical density (450 nm)", "setting": "[2]; Table 8, serum 8247 (HCV), Avidin", "result": 0.756}, {"measurement": "optical density (450 nm)", "setting": "[2]; Table 8, serum 8248 (HCV), Avidin", "result": 0.047}, {"measurement": "optical density (450 nm)", "setting": "[2]; Table 8, serum 8269 (HCV), Avidin", "result": 0.051}, {"measurement": "optical density (450 nm)", "setting": "[2]; Table 8, serum 8273 (HCV), Avidin", "result": 0.053}, {"measurement": "optical density (450 nm)", "setting": "[2]; Table 8, serum 8278 (HCV), Avidin", "result": 0.074}, {"measurement": "optical density (450 nm)", "setting": "[2]; Table 8, serum 8285 (HCV), Avidin", "result": 0.270}, {"measurement": "optical density (450 nm)", "setting": "[2]; Table 8, serum 8290 (HCV), Avidin", "result": 0.048}, {"measurement": "optical density (450 nm)", "setting": "[2]; Table 8, serum 8291 (HCV), Avidin", "result": 0.052}, {"measurement": "PEPTIDE ELISA (O.D.)", "setting": "[2]; serum 0843", "result": 2.206}, {"measurement": "PEPTIDE ELISA (O.D.)", "setting": "[2]; serum 8240", "result": 0.142}, {"measurement": "PEPTIDE ELISA (O.D.)", "setting": "[2]; serum 8241", "result": 0.421}, {"measurement": "PEPTIDE ELISA (O.D.)", "setting": "[2]; serum 8242", "result": 2.114}, {"measurement": "PEPTIDE ELISA (O.D.)", "setting": "[2]; serum 8332", "result": 0.392}, {"measurement": "PEPTIDE ELISA (O.D.)", "setting": "[2]; serum 8339", "result": 2.497}, {"measurement": "PEPTIDE ELISA (O.D.)", "setting": "[2]; serum 8350", "result": 1.779}, {"measurement": "PEPTIDE ELISA (O.D.)", "setting": "[2]; serum 8377", "result": 2.360}, {"measurement": "PEPTIDE ELISA (O.D.)", "setting": "[2]; serum 8378", "result": 1.859}, {"measurement": "PEPTIDE ELISA (O.D.)", "setting": "[2]; serum 8388", "result": 2.300}, {"measurement": "antibody binding to the 20-mers", "setting": "[2]; serum 8241", "result": "very strong"}]}
